# Values joined by “and” are separate entries in the source; they are usually repeats but may differ in a detail not shown here. Identical values can stand only once. “Also recorded” adds a separate entry of the source. Like-named read-outs stand apart in the source and are kept apart here.
# Key:
# [1] = Systemic pharmacokinetics in plasma of early-stage MF patients (UPLC-MS/MS), part B; format: in vivo, human
# Experimental: (§1) The healthy volunteers in part A were administered 2 mg/cm^2 topical bimiralisib 2% on 400 cm^2 and 2 mg/cm^2 vehicle gel (serving as placebo with identical appearance) on 100 cm^2 skin of the back once daily by the study physician for 21 consecutive days, all administered at the study site. The 19 patients in part B were randomized 1:1, with 9 assigned to active and 10 to placebo. Randomization was predefined and performed in SAS version 9.4 (SAS Institute, Cary, NC, USA) by an independent statistician, using the SAS code for the parallel, two-treatment randomization with block size 2. The investigators, study personnel, sponsor and patients were blinded for allocated treatment throughout the study. Patients randomized in the treatment group applied topical bimiralisib 2%, once daily for 42 consecutive days, whereas the control group applied the vehicle gel. During the treatment period, the patients applied the bimiralisib or vehicle themselves at home after training and instructions on day 1. After 42 days, patients with ≥15% lesion improvement by CAILS could enter a blinded extension period in which treatment was continued until day 84.
# (§2) At baseline of part B, one to three MF lesions (target lesions) were chosen to define a 150–200 cm^2 treatment area. Other MF lesions were left untreated in this study. Emollients, i.e., unguentum leniens, were distributed to patients and allowed for daily use on the skin, barring the target lesion(s). In part B, patient visits to the study site were scheduled for days −42 (run-in period), 1, 14, 28, 42 (end of treatment for all patients with <15% lesion improvement), 56 and 70 (end of study). Patients continuing with the extended treatment period had three extra visits on days 84 (end of treatment), 98 and 112 (end of study). Study details are provided in the assessment schedule (Table 1, Part B).
# (§3) Blood samples for determination of bimiralisib levels in plasma of HVs were collected predose and at 1, 3, 6 and 24 h on days 7, 14 and 21 of application in part A. In part B, PK blood samples from patients were collected predose and at 1, 2, 3 and 6 h after dosing on day 42 (or on day 84 in case of participation in the extension study) of topical application.
# (§4) Pharmacokinetics in plasma were analyzed with a validated ultra-performance liquid chromatography–tandem mass spectrometer method (UPLC-MS/MS) with a lower limit of quantification of 1.00 ng/mL of plasma.
# (§5) Pharmacokinetic data were visualized for each subject and part separately. Due to differences in surface areas and applied doses between part A and part B, pharmacokinetic data were normalized to allow for the exploration of differences in exposure between HVs and patients after log transformation. For exploratory purposes, the applied dose was stratified by part and by number of lesions. The average concentration (Cavg) per subject was calculated based on all pharmacokinetic data of an individual combined.
# [2] = set-up: method as in earlier work; conditions: plasma; cited from earlier work
# [3] = Cutaneous pharmacokinetics in skin punch biopsies of MF patients (MALDI-MSI); format: in vivo, human; conditions: for concentration at 6 h: human, skin punch biopsy, topical, 2 % gel, MF patients
# Experimental: (§6) To investigate cutaneous pharmacokinetics in both HVs and patients, 3 mm skin punch biopsies of the treatment area were taken 6 h after the last topical application (day 21 in part A and day 42/84 in part B, respectively) and snap-frozen within 5 min after collection. Skin punch biopsies were shipped to ImaBiotech (MS Imaging Department, Lille, France) and analyzed using matrix-assisted laser desorption/ionization mass spectrometry imaging (MALDI-MSI) to spatially visualize pharmacokinetics of bimiralisib throughout the biopsy (Figure 1).
# (§7) Figure 1 Method of obtaining cutaneous pharmacokinetics of bimiralisib in HVs and early-stage MF patients. (A) Bimiralisib gel 2% is applied topically, in part A at the back of six HVs and in part B at 1–3 target MF lesions. (B) A full-thickness skin punch biopsy was taken on day 21 and day 42/84, respectively, for HVs and MF patients. Skin punch biopsy was snap-frozen within 5 min, processed and cryosectioned. A single section was used for H&E staining. (C) MALDI matrix spraying. (D) Prepared samples were ionized by a laser beam. (E) Seven tesla Matrix-assisted laser desorption/ionization Fourier transform ion cyclotron resonance mass spectrometry imaging (7T-MALDI-FTICR MSI) acquisition. (F) Acquired data are analyzed and MALDI images are acquired.
# (§8) Pharmacokinetics in tissue were analyzed with a validated 7T-MALDI-FTICR method with a lower limit of quantification of 62 ng/g of tissue and an assay sensitivity of […] (lower limit of detection). Pharmacokinetic data below the lower limit of quantification but above the limit of detection were interpolated and used in the analysis.
# [4] = Cutaneous pharmacokinetics in skin punch biopsies of healthy volunteers (MALDI-MSI); format: in vivo, human; conditions: for Kp at 6 h / concentration at 6 h: human, topical; for Kp at 6 h: skin / plasma, 2 mg/cm^2, HVs; for concentration at 6 h: 2 mg/cm^2, HVs, day 21, 6 h after last application
# Experimental: as §6, §7, §8
# healthy volunteers = experiment: Safety and tolerability in healthy volunteers, part A; format: in vivo, human
# Experimental: as §1
# (§9) The secondary endpoint was to characterize local tolerability, safety and systemic exposure of bimiralisib by application site assessment using the Local Irritation Grading Scale (LIGS), adverse events (AEs), safety measurements and systemic pharmacokinetics.
# (§10) The LIGS, a composite score of erythema, edema and desquamation, was used to assess the application site for safety or tolerability issues. In addition, safety and tolerability were evaluated by monitoring of AEs, physical examinations, vital signs, 12-lead ECGs and laboratory tests.
# [5] = system: early-stage MF target lesions; experiment: Clinical efficacy and pharmacodynamics in early-stage MF patients (CAILS, LSCI, OCT, multispectral imaging); format: in vivo, human
# Experimental: as §1, §2
# The primary endpoint was to evaluate the efficacy of bimiralisib versus placebo after 6 weeks of treatment by the change from baseline on Composite Assessment of Index Lesion Severity (CAILS). Clinical efficacy was assessed by the CAILS per target lesion, which is a score derived from individual scores for erythema, desquamation, plaque elevation, hypo- or hyperpigmentation and lesion size. Change from baseline of the combined CAILS score for all target lesions was used to calculate the objective response rate (ORR), i.e., the number of patients with complete response (CR: 100% clearance of target lesions from baseline) and partial response (PR: 50%–99% clearance) divided by the total number of patients in the respective treatment arm. […] Target lesions were extensively characterized by the assessment of skin perfusion with laser speckle contrast imaging (LSCI, PeriCam PSI NR system, Perimed, Sweden); skin morphology (blood flow) by optical coherence tomography (OCT, VivoSight, Michelson Diagnostics, UK); and erythema, roughness and edema by a multispectral camera (Antera 3D, Miravez, Ireland). The Scarlet Red app (ScarletRed Vision, Vienna, Austria) was used by patients at home for daily photo documentation and erythema quantification of a single target lesion.
# All safety and statistical calculations were conducted with SAS version 9.4 for Windows (SAS Institute, Cary, NC, USA). PK parameter calculations were conducted with R version 4.0.3 for Windows (R Foundation for Statistical Computing, Vienna, Austria). All efficacy endpoints were analyzed for both the per protocol set and full analysis set, using a mixed model analysis of covariance (ANCOVA) with treatment, time and interaction of treatment by time as fixed factors; baseline as covariate; and subject as random factor.
# MF patients = experiment: Safety and tolerability in MF patients, part B; format: in vivo, human
# Experimental: as §1, §9, §10
# [6] = Systemic pharmacokinetics in plasma of healthy volunteers (UPLC-MS/MS), part A; format: in vivo, human; conditions: for AUC(0-t): topical, 2 mg/cm^2, HVs
# Experimental: as §1, §3, §4, §5
# CTCL patients = system: CTCL patients; set-up: method as in PMID 29233821; conditions: oral, 19 CTCL patients; cited from earlier work
# CTCL cell lines = conditions: cited from earlier work
structure (smiles),measurement,setting,value
"Nc1cc(C(F)(F)F)c(-c2nc(N3CCOCC3)nc(N3CCOCC3)n2)cn1 [bimiralisib, 5-(4,6-Dimorpholino-1,3,5-triazin-2-yl)-4-(trifluoromethyl)pyridin-2-amine]",highest plasma concentration reached,[1]; MF patients,18.70 ng/mL
same,mean Cavg in plasma,"[1]; MF patients, gel 2% once daily, day 42 or 84",4.49 ng/mL
same,plasma concentrations relative to NOAEL,"[1]; MF patients, NOAEL 96.6 ng/mL",substantially below
same,"mean ratio of normalized plasma concentration, MF patients vs HVs",[1]; normalized around 200 cm^2/(2 mg/cm^2),2.44 fold
same,"increase in normalized plasma concentration, MF patients compared to HVs",[1]; normalized for applied dose and area,144%
same,human no observed adverse effect level (NOAEL Cmax),[2],96.6 ng/mL
same,"exposure in papillary dermis, lower than in epidermis","[3]; Figure 5, single HV and single MF patient, MALDI-MSI",approximately 10 fold
same,concentration at 6 h,"[3]; day 42/84, 6 h after last application, read-out: mean cutaneous concentration in skin punch biopsies",5300 ng/g
same,concentration at 6 h,"[3]; day 42/84, read-out: cutaneous concentration in skin punch biopsies, range",300 to 30200 ng/g
same,Kp at 6 h,[4]; read-out: mean ratio skin/plasma concentration,3050
same,Kp at 6 h,"[4]; read-out: ratio skin/plasma concentration, range",1210 to 7360
same,concentration at 6 h,"[4]; skin punch biopsy (epidermis), epidermis, read-out: mean concentration in skin punch biopsies",2540 ng/g
same,concentration at 6 h,"[4]; skin punch biopsy, read-out: concentration in skin punch biopsies, range",1030 to 5700 ng/g
same,"exposure in papillary and reticular dermis, lower than in epidermis",[4]; part A skin punch biopsies,approximately 10 fold
same,local exposure in epidermis relative to IC90 of pAKT and pS6,"[4]; part A skin punch biopsies, IC90 from ref 31, 32",within range of the IC90 of pAKT and pS6
same,"acne at the application site, subjects","healthy volunteers; bimiralisib area, n = 3",50%
same,"LIGS scores, bimiralisib vs placebo areas",healthy volunteers; full course,comparable
same,subjects with one or more adverse events,"healthy volunteers; n = 6, each subject received both bimiralisib and placebo areas",100%
same,"dryness at the application site, subjects",healthy volunteers; reported for both placebo- and bimiralisib-treated areas,83.3%
same,"efficacy by CAILS vs placebo, in words","[5]; 42 days once-daily treatment, p = 0.74 over time, p = 0.98 on day 42",No statistical significant difference; also recorded: no statistically significant clinical response
same,objective response rates between treatment groups,[5]; Table S7,No substantial differences
same,subjects with ≥15% lesional response by CAILS,"[5]; bimiralisib group (n = 9), day 42",Three
same,clinical response classification,"[5]; bimiralisib group, by CAILS",stable disease
same,"difference in change from baseline in CAILS, bimiralisib vs placebo","[5]; day 42, once daily, 95% CI −3.3–3.4, p = 0.9820",0.0
same,"skin perfusion (LSCI), blood flow (OCT), erythema and roughness by 3D multispectral imaging",[5]; target lesions,no improvement
same,"vital signs, laboratory analyses, ECG, urinalysis",MF patients; both parts,did not result in any clinically significant changes
same,overall tolerability,"MF patients; local reactions and systemic adverse events, HVs and MF patients",safe and well tolerated
same,"myalgia, patients","MF patients; part B, bimiralisib group, 2/9",22.2%
same,"mild dryness at the application site, patients","MF patients; part B, bimiralisib group, day 14",1/9
same,"well-defined erythema at the application site, patients","MF patients; part B, bimiralisib group, day 28",one
same,patients with at least one AE,"MF patients; part B, bimiralisib group, six of nine patients",66.7%
same,mean Cavg in plasma,"[6]; HVs, 2 mg/cm^2 gel 2% on 400 cm^2 once daily for 21 days",0.96 ng/mL and 0.956 ng/mL
same,time at which steady state is reached,"[6]; HVs, topical gel once daily",< 7 days
same,plasma concentrations relative to human NOAEL,"[6]; HVs, NOAEL 96.6 ng/mL",detectable but low and substantially below
same,Cmax,"[6]; human, plasma, 2 mg/cm^2, HVs, topical once daily, read-out: highest Cmax in plasma",2.74 ng/mL
same,AUC(0-t),"[6]; human, plasma, after 14 days of once-daily gel, read-out: highest AUC(0-24h)",40 ng·h/mL
same,AUC(0-t),"[6]; human, plasma, day 7, read-out: mean AUC(0-24 h)",21.3 ng·h/mL
same,AUC(0-t),"[6]; human, plasma, day 14, read-out: mean AUC(0-24 h)",22.2 ng·h/mL
C[C@H](Nc1ncnc2nc[nH]c12)c1cc2cccc(Cl)c2c(=O)n1-c1ccccc1 [duvelisib],complete responders by mSWAT,CTCL patients,3
same,partial responders by mSWAT,CTCL patients,6
CO[C@H]1C[C@@H]2CC[C@@H](C)[C@@](O)(O2)C(=O)C(=O)N2CCCC[C@H]2C(=O)O[C@H]([C@H](C)C[C@@H]2CC[C@@H](OCCO)[C@H](OC)C2)CC(=O)[C@H](C)/C=C(\C)[C@@H](O)[C@@H](OC)C(=O)[C@H](C)C[C@H](C)/C=C/C=C/C=C/1C [everolimus],antitumor activity in vitro,CTCL cell lines,has antitumor activity in vitro

# Source: paper PMC8946662, “Topical Bimiralisib Shows Meaningful Cutaneous Drug Levels in Healthy Volunteers and Mycosis Fungoides Patients but No Clinical Activity in a First-in-Human, Randomized Controlled Trial” (Cancers, 2022)
